Measurements as given in patent US20050095270A1, “Drug delivery to the inner ear and methods of using same” (priority 2003, published 2005).
Where a SMILES comes first, the peptide text is derived from it. The star is where a group is joined. Cbz = O=C(OCc1ccccc1)*; CH2F = FC*

What was measured:
[1] = test system: hair cells of organ of Corti; assay: Mitochondrial function and hair cell survival in organ of Corti treated with cisplatin; format: cell-based; conditions: cisplatin treatment alone (FIGS. 3B, 3E)
From the text: FIGS. 3A-3F are fluorescent micrographs showing mitochondrial function in hair cells. Cells with healthy and functioning mitochondria stain red and are depicted in 3D, 3E and 3F. The presence of hair cells are shown in green and depicted in 3A, 3B and 3C. FIGS. 3A and 3D represent untreated controls. FIGS. 3B and 3E show an organ of Corti treated with the chemotherapeutic agent cisplatin. […] FIGS. 3C and 3F show an organ of Corti pretreated with an adenovector with bcl2 expression followed by cisplatin treatment.

cathepsin B = cathepsin B (Homo sapiens, UniProt P07858); conditions: in vitro and in tissue culture cells at concentrations used to demonstrate the involvement of caspases; cited from earlier work
inner ear = assay: Hearing by auditory brainstem response after round window injection of vector; format: in vivo, mouse; conditions: for protection of hearing / prevention of inner ear trauma by caspase inhibitor: larger volumes of fluid (greater than about 10% of total inner ear volume), hydraulic/mechanical injury

Row | Compound | hair cells and mitochondrial function in organ of Corti [1] | cathepsin B activity inhibition (cathepsin B) | protection of hearing / prevention of inner ear trauma by caspase inhibitor (inner ear) | protection of hearing / prevention of inner ear trauma by caspase inhibitor (inner ear; listed as pancaspase inhibitor) | hearing loss with pancaspase inhibitor added to the vector composition (inner ear; round window, injection volumes up to 3 μL, zVAD-FMK 1 mM, 2 μL with 1 μL vector)
1 | N.N.[Cl][Pt][Cl] [cisplatin] | loss of cells and loss of mitochondrial function | – | – | – | –
2 | CC(C)[C@H](NC(=O)OCc1ccccc1)C(=O)N[C@@H](C)C(=O)N[C@@H](CC(=O)O)C(=O)CF [zVAD-FMK, N-benzyloxycarbonyl-Val-Ala-Asp-fluoromethylketone] (Cbz-Val-Ala-Asp-CH2F) | – | inhibit efficiently cathepsin B activity | can prevent inner ear trauma | protected hearing | only minimal loss of hearing
